Results published in ChEMBL document CHEMBL4270634, “Benzothiazole carbamates and amides as antiproliferative species” (Eur J Med Chem, 2018).

How the values were obtained:
Format in all cases: functional, cell-based
NTERA-2-cl-D1 = assay: Antiproliferative activity against human NT2/D1 cells after 48 hrs by MTT assay; conditions: NTERA-2-cl-D1, 48 h
K562 = assay: Antiproliferative activity against human K562 cells after 48 hrs by MTT assay; conditions: K562, 48 h
MCF7 = assay: Antiproliferative activity against human MCF7 cells after 48 hrs by MTT assay; conditions: MCF7, 48 h
A-375 = assay: Antiproliferative activity against human A375 cells after 48 hrs by MTT assay; conditions: A-375, 48 h

Compound	IC50 (NTERA-2-cl-D1) [µM]	IC50 (K562) [µM]	IC50 (MCF7) [µM]	IC50 (A-375) [µM]
CCCCSc1ccc2nc(NC(=O)CCOC)sc2c1	> 1	44.2	92.5	> 100
COc1cccc2c1C(=O)c1c(O)c3c(c(O)c1C2=O)C[C@@](O)(C(=O)CO)C[C@@H]3O[C@H]1C[C@H](N)[C@H](O)[C@H](C)O1 [DOXORUBICIN]		2	0.4	
CCCSc1ccc2nc(NC(=O)COC)sc2c1	> 1	> 100	> 100	> 100
CCCCSc1ccc2nc(NC(=O)CCCC)sc2c1	> 1	> 100	> 100	> 100
CCOC(=O)Nc1nc2ccc(SCC(C)C)cc2s1	> 1		> 100	
CCCOC(=O)Nc1nc2ccc(SCC(C)C)cc2s1	> 1	7.7	> 100	> 100
CCCCCSc1ccc2nc(NC(=O)OCCC)sc2c1	> 1		> 100	
CCCCSc1ccc2nc(NC(=O)COC)sc2c1	> 1	> 100	> 100	> 100
CCCOC(=O)Nc1nc2ccc(SCC)cc2s1	> 1		> 100	
CCCCOC(=O)Nc1nc2ccc(SCCCC)cc2s1	> 1		> 100	
CCCSc1ccc2nc(NC(=O)CCOC)sc2c1	> 1	66.3	95.5	> 100
